From patent US20040156869A1, “2-substituted quinazolin-4-ylamine analogues” (Neurogen Corporation, priority 2002, published 2004)
Where two headings read alike, the source gives them in different places.

Target: human capsaicin receptor (VR1) (Homo sapiens, UniProt Q8NER1)
Test: Capsaicin receptor binding assay ([3H]RTX competition, VR1-transfected HEK293 membranes)

Sequence of human capsaicin receptor (VR1) (Q8NER1 whole entry): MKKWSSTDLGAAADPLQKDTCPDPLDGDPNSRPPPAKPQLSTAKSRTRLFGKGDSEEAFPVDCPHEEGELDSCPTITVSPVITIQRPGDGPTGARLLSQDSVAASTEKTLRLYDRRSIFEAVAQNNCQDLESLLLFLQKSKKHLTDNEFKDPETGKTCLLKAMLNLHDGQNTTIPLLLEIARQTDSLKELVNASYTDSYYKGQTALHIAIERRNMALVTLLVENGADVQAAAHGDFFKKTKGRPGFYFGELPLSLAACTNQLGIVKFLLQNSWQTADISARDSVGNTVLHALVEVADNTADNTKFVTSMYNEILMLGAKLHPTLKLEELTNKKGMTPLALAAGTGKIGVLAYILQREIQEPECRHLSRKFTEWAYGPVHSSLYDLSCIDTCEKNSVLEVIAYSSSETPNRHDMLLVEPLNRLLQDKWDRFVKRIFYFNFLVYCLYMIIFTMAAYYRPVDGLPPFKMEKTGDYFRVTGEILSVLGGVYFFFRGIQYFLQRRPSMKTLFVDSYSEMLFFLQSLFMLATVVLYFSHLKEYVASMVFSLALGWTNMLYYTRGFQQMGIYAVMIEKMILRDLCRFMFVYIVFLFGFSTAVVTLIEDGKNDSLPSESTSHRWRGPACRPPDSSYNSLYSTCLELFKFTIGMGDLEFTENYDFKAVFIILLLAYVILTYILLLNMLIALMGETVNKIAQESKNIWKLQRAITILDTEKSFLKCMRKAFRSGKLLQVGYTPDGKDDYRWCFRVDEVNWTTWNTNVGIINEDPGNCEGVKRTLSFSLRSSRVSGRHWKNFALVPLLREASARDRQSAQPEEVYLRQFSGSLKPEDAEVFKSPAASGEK

Structure (SMILES) | Ki [nM] | Ki (Table III, capsaicin receptor binding) [nM]
O=CN1CCN(CCc2nc(Nc3ccc(C(F)(F)F)cc3)c3ccc(-c4ncccc4C(F)(F)F)cc3n2)CC1 [Compound 562, 4-{2-[4-(4-Trifluoromethyl-phenylamino)-7-(3-trifluoromethyl-pyridin-2-yl)-quinazolin-2-yl]-ethyl}-piperazine-1-carbaldehyde] | < 1000 | –
OCCC1CCN(CCCc2nc(Nc3ccc(C(F)(F)F)cc3)c3ccc(-c4ncccc4C(F)(F)F)cc3n2)CC1 [Compound 568, 2-(1-{3-[4-(4-Trifluoromethyl-phenylamino)-7-(3-trifluoromethyl-pyridin-2-yl)-quinazolin-2-yl]-propyl}-piperidin-4-yl)-ethanol] | < 1000 | –
OCC1CCN(CCCc2nc(Nc3ccc(C(F)(F)F)cc3)c3ccc(-c4ncccc4C(F)(F)F)cc3n2)CC1 [Compound 569, (1-{3-[4-(4-Trifluoromethyl-phenylamino)-7-(3-trifluoromethyl-pyridin-2-yl)-quinazolin-2-yl]-propyl}-piperidin-4-yl)-methanol] | < 1000 | –
OC1CCN(CCCc2nc(Nc3ccc(C(F)(F)F)cc3)c3ccc(-c4ncccc4C(F)(F)F)cc3n2)CC1 [Compound 570] | < 1000 | –
CC1CCCN(CCCc2nc(Nc3ccc(C(F)(F)F)cc3)c3ccc(-c4ncccc4C(F)(F)F)cc3n2)C1 (centres unmarked) [Compound 572, [2-[3-(3-Methyl-piperidin-1-yl)-propyl]-7-(3-trifluoromethyl-pyridin-2-yl)-quinazolin-4-yl]-(4-trifluoromethyl-phenyl)-amine] | < 1000 | –
CN1CCN(CCCc2nc(Nc3ccc(C(F)(F)F)cc3)c3ccc(-c4ncccc4C(F)(F)F)cc3n2)CC1 [Compound 573, [2-[3-(4-Methyl-piperazin-1-yl)-propyl]-7-(3-trifluoromethyl-pyridin-2-yl)-quinazolin-4-yl]-(4-trifluoromethyl-phenyl)-amine] | < 1000 | –
FC(F)(F)c1ccc(Nc2nc(CNCc3ccccc3)nc3cc(-c4ncccc4C(F)(F)F)ccc23)cn1 [Compound 574, [2-(Benzylamino-methyl)-7-(3-trifluoromethyl-pyridin-2-yl)-quinazolin-4-yl]-(6-trifluoromethyl-pyridin-3-yl)-amine] | < 1000 | –
CN(Cc1ccccc1)Cc1nc(Nc2ccc(C(F)(F)F)nc2)c2ccc(-c3ncccc3C(F)(F)F)cc2n1 [Compound 575, [2-[(Benzyl-methyl-amino)-methyl]-7-(3-trifluoromethyl-pyridin-2-yl)-quinazolin-4-yl]-(6-trifluoromethyl-pyridin-3-yl)-amine] | < 1000 | –
COc1ccccc1CNCc1nc(Nc2ccc(C(F)(F)F)nc2)c2ccc(-c3ncccc3C(F)(F)F)cc2n1 [Compound 576, [2-[(2-Methoxy-benzylamino)-methyl]-7-(3-trifluoromethyl-pyridin-2-yl)-quinazolin-4-yl]-(6-trifluoromethyl-pyridin-3-yl)-amine] | < 1000 | –
COc1ccc(CNCc2nc(Nc3ccc(C(F)(F)F)nc3)c3ccc(-c4ncccc4C(F)(F)F)cc3n2)cc1 [Compound 577, [2-[(4-Methoxy-benzylamino)-methyl]-7-(3-trifluoromethyl-pyridin-2-yl)-quinazolin-4-yl]-(6-trifluoromethyl-pyridin-3-yl)-amine] | < 1000 | –
CC1CN(Cc2nc(Nc3ccc(C(C)(C)C)cc3)c3ncc(-c4ncccc4C(F)(F)F)cc3n2)CC(C)O1 (stereo not drawn) [Compound 583, (4-tert-Butyl-phenyl)-[2-(2,6-dimethyl-morpholin-4-ylmethyl)-7-(3-trifluoromethyl-pyridin-2-yl)-pyrido[3,2-d]pyrimidin-4-yl]-amine (cis)] | – | < 1000
OC1CCN(CCc2nc(Nc3ccc(C(F)(F)F)cc3)c3ccc(-c4ncccc4C(F)(F)F)cc3n2)CC1 [Compound 586, [2-(4-Hydroxy-piperidin-1-ylethyl)-7-(3-trifluoromethyl-pyridin-2-yl)-quinazolin-4-yl]-(4-trifluoromethyl-phenyl)-amine] | < 1000 | –
CC1CCCN(CCc2nc(Nc3ccc(C(F)(F)F)cc3)c3ccc(-c4ncccc4C(F)(F)F)cc3n2)C1 (centres unmarked) [Compound 587, [2-(3-Methyl-piperidin-1-ylethyl)-7-(3-trifluoromethyl-pyridin-2-yl)-quinazolin-4-yl]-(4-trifluoromethyl-phenyl)-amine] | < 1000 | –
NC(=O)C1CCN(CCc2nc(Nc3ccc(C(F)(F)F)cc3)c3ccc(-c4ncccc4C(F)(F)F)cc3n2)CC1 [Compound 589, 1-{2-[4-(4-Trifluoromethyl-phenylamino)-7-(3-trifluoromethyl-pyridin-2-yl)-quinazolin-2-yl]-ethyl}-piperidine-4-carboxylic acid amide] | < 1000 | –
CCCS(=O)(=O)c1ccc(Nc2nc(CN3C[C@@H](C)O[C@@H](C)C3)nc3cc(-c4ncccc4C(F)(F)F)cnc23)cc1 [Compound 594, [2-(2,6-Dimethyl-morpholin-4-ylmethyl)-7-(3-trifluoromethyl-pyridin-2-yl)-pyrido[3,2-d]pyrimidin-4-yl]-[4-(propane-1-sulfonyl)-phenyl]-amine (cis)] | < 1000 | –

Continued, values first:

Ki [nM] | Ki (Table III, capsaicin receptor binding) [nM] | Structure (SMILES)
< 1000 | – | CC1CN(CCc2nc(Nc3ccc(C(F)(F)F)cc3)c3ccc(-c4ncccc4C(F)(F)F)cc3n2)CC(C)O1 (centres unmarked) [Compound 561, [2-[2-(2,6-Dimethyl-morpholin-4-yl)-ethyl]-7-(3-trifluoromethyl-pyridin-2-yl)-quinazolin-4-yl]-(4-trifluoromethyl-phenyl)-amine]
< 1000 | – | OC1CCCN(CCCc2nc(Nc3ccc(C(F)(F)F)cc3)c3ccc(-c4ncccc4C(F)(F)F)cc3n2)C1 (centres unmarked) [Compound 571, 1-{3-[4-(4-Trifluoromethyl-phenylamino)-7-(3-trifluoromethyl-pyridin-2-yl)-quinazolin-2-yl]-propyl}piperidin-3-ol]
< 1000 | – | FC(F)(F)c1ccc(Nc2nc(CNCc3ccccn3)nc3cc(-c4ncccc4C(F)(F)F)ccc23)cn1 [Compound 578, [2-{[(Pyridin-2-ylmethyl)-amino]-methyl}-7-(3-trifluoromethyl-pyridin-2-yl)-quinazolin-4-yl]-(6-trifluoromethyl-pyridin-3-yl)-amine]
< 1000 | – | FC(F)(F)c1ccc(Nc2nc(Cn3ccnc3)nc3cc(-c4ncccc4C(F)(F)F)ccc23)cn1 [Compound 579, [2-Imidazol-1-ylmethyl-7-(3-trifluoromethyl-pyridin-2-yl)-quinazolin-4-yl]-(6-trifluoromethyl-pyridin-3-yl)-amine]
< 1000 | – | O=S(=O)(c1ccc(Nc2nc(CN3CCOCC3)nc3cc(-c4ncccc4C(F)(F)F)ccc23)cc1)C(F)(F)F [Compound 580, [2-Morpholin-4-ylmethyl-7-(3-trifluoromethyl-pyridin-2-yl)-quinazolin-4-yl]-(4-trifluoromethanesulfonyl-phenyl)-amine]
< 1000 | – | CC1CN(Cc2nc(Nc3ccc(S(=O)(=O)C(F)(F)F)cc3)c3ccc(-c4ncccc4C(F)(F)F)cc3n2)CC(C)O1 (centres unmarked) [Compound 581, [2-(2,6-Dimethyl-morpholin-4-ylmethyl)-7-(3-trifluoromethyl-pyridin-2-yl)-quinazolin-4-yl]-(4-trifluoromethanesulfonyl-phenyl)-amine]
< 1000 | – | C[C@@H]1CN(Cc2nc(Nc3ccc(S(=O)(=O)C(F)(F)F)cc3)c3ccc(-c4ncccc4C(F)(F)F)cc3n2)C[C@H](C)O1 [Compound 582, [2-(2,6-Dimethyl-morpholin-4-ylmethyl)-7-(3-trifluoromethyl-pyridin-2-yl)-quinazolin-4-yl]-(4-trifluoromethanesulfonyl-phenyl)-amine (cis)]
< 1000 | – | CCCOC(=O)N1CCN(CCc2nc(Nc3ccc(C(F)(F)F)cc3)c3ccc(-c4ncccc4C(F)(F)F)cc3n2)CC1 [Compound 585, 4-{2-[4-(4-Trifluoromethyl-phenylamino)-7-(3-trifluoromethyl-pyridin-2-yl)-quinazolin-2-yl]-ethyl}-piperazine-1-carboxylic acid propyl ester]
< 1000 | – | OC1CCCN(CCc2nc(Nc3ccc(C(F)(F)F)cc3)c3ccc(-c4ncccc4C(F)(F)F)cc3n2)C1 (centres unmarked) [Compound 588, [2-(3-Hydroxy-piperidin-1-ylethyl)-7-(3-trifluoromethyl-pyridin-2-yl)-quinazolin-4-yl]-(4-trifluoromethyl-phenyl)-amine]
< 1000 | – | CCOC(=O)C1CCCN(CCc2nc(Nc3ccc(C(F)(F)F)cc3)c3ccc(-c4ncccc4C(F)(F)F)cc3n2)C1 (centres unmarked) [Compound 590, 1-{2-[4-(4-Trifluoromethyl-phenylamino)-7-(3-trifluoromethyl-pyridin-2-yl)-quinazolin-2-yl]-ethyl}-piperidine-3-carboxylic acid ethyl ester]
< 1000 | – | CCOC(=O)C1CCN(CCc2nc(Nc3ccc(C(F)(F)F)cc3)c3ccc(-c4ncccc4C(F)(F)F)cc3n2)CC1 [Compound 592, 1-{2-[4-(4-Trifluoromethyl-phenylamino)-7-(3-trifluoromethyl-pyridin-2-yl)-quinazolin-2-yl]-ethyl}-piperidine-4-carboxylic acid ethyl ester]
< 1000 | – | C[C@@H]1CN(Cc2nc(Nc3ccc(S(=O)(=O)C(F)(F)F)cc3)c3ncc(-c4ncccc4C(F)(F)F)cc3n2)C[C@H](C)O1 [Compound 593, [2-(2,6-Dimethyl-morpholin-4-ylmethyl)-7-(3-trifluoromethyl-pyridin-2-yl)-pyrido[3,2-d]pyrimidin-4-yl]-(4-trifluoromethanesulfonyl-phenyl)-amine (cis)]
< 1000 | – | CC(C)S(=O)(=O)c1ccc(Nc2nc(CN3C[C@@H](C)O[C@@H](C)C3)nc3cc(-c4ncccc4C(F)(F)F)cnc23)cc1 [Compound 595, [2-(2,6-Dimethyl-morpholin-4-ylmethyl)-7-(3-trifluoromethyl-pyridin-2-yl)-pyrido[3,2-d]pyrimidin-4-yl]-[4-(propane-2-sulfonyl)-phenyl]-amine (cis)]
< 1000 | – | C[C@@H]1CN(Cc2nc(Nc3ccc(C(F)(F)F)cc3)c3ccc(-c4ncccc4Cl)cc3n2)C[C@H](C)O1 [Compound 598, [7-(3-Chloro-pyridin-2-yl)-2-(2,6-dimethyl-morpholin-4-ylmethyl)-quinazolin-4-yl]-(4-trifluoromethyl-phenyl)-amine (cis)]
